# Source: patent publication US10934310B2, “Inhibitors of Bruton's tyrosine kinase and method of their use” (JANSSEN PHARMACEUTICA NV, priority 2015, dated 2021)
# Target: unphosphorylated-BTK kinase domain (UP-BTK), GST-tagged human BTK (389-659aa) (Homo sapiens (Human), UniProt Q06187)
# Assay: BTK Kinase Lanthascreen Binding Assay
# Conditions: compound, 50 nM Tracer 236, 2 nM anti-GST antibody, 60 minutes; pIC50 = negative log of the IC50 in molar
# Procedure: BTK Kinase Lanthascreen Binding Assay:
# A BTK kinase lanthascreen binding assay monitors compound binding to unphosphorylated-BTK kinase domain (UP-BTK), by competing with a fluorescent labeled tracer. […] Data were analyzed using Xlfit™ version 5.3 from ID Business Solutions (Guildford), Microsoft Excel add-in. pIC50 refers to the negative log of the IC50 in molar.
# Sequence of unphosphorylated-BTK kinase domain (UP-BTK), GST-tagged human BTK (389-659aa) (Q06187 389-659): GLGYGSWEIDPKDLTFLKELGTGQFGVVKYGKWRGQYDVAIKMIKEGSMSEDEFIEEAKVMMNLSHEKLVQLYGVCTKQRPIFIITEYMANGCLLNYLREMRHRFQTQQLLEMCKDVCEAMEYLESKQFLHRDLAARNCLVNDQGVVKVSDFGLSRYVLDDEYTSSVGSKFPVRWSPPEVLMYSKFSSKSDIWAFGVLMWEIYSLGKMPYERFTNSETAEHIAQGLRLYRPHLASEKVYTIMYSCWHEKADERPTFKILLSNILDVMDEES
row,Compound,BTK_I_binding pIC50
1,"N[C@@H]1CC[C@H](NC(=O)c2sc3nccc4c3c2NC(=O)N4c2ccc(Oc3ccccc3)cc2)C1 [Example 164, N-((1S,3R)-3-Aminocyclopentyl)-4-oxo-5-(4-phenoxyphenyl)-4,5-dihydro-3H-1-thia-3,5,8-triazaacenaphthylene-2-carboxamide]",5.19
2,"C=CC(=O)N[C@H]1CCCC[C@H]1NC(=O)c1sc2nccc3c2c1NC(=O)N3c1ccc(Oc2ccccc2)nc1 [Example 172, N-((1R,2S)-2-Acrylamidocyclohexyl)-4-oxo-5-(6-phenoxypyridin-3-yl)-4,5-dihydro-3H-1-thia-3,5,8-triazaacenaphthylene-2-carboxamide]",8.35
3,"C=CC(=O)N[C@@H]1CCC[C@H]1NC(=O)c1sc2nccc3c2c1NC(=O)N3c1ccc(Oc2ccccc2)nc1 [Example 177, N-((1R,2R)-2-Acrylamidocyclopentyl)-4-oxo-5-(6-phenoxypyridin-3-yl)-4,5-dihydro-3H-1-thia-3,5,8-triazaacenaphthylene-2-carboxamide]",7.49
4,"C=CC(=O)N[C@H]1CCC[C@H]1NC(=O)c1sc2nccc3c2c1NC(=O)N3c1ccc(Oc2ccccc2)nc1 [Example 178, N-((1R,2S)-2-Acrylamidocyclopentyl)-4-oxo-5-(6-phenoxypyridin-3-yl)-4,5-dihydro-3H-1-thia-3,5,8-triazaacenaphthylene-2-carboxamide]",8.28
5,"C=CC(=O)N[C@H]1CCC[C@H]1NC(=O)c1sc2nccc3c2c1NC(=O)N3c1ccc(Oc2ccccc2)cn1 [Example 179, N-((1R,2S)-2-Acrylamidocyclopentyl)-4-oxo-5-(5-phenoxypyridin-2-yl)-4,5-dihydro-3H-1-thia-3,5,8-triazaacenaphthylene-2-carboxamide]",8.37
6,"C=CC(=O)N[C@H]1CCCC[C@H]1NC(=O)c1sc2nccc3c2c1NC(=O)N3c1cnc(OC2CCC2)cc1C [Example 183, N-((1R,2S)-2-Acrylamidocyclohexyl)-5-(6-cyclobutoxy-4-methylpyridin-3-yl)-4-oxo-4,5-dihydro-3H-1-thia-3,5,8-triazaacenaphthylene-2-carboxamide]",7.58
7,"C=CC(=O)N[C@@H]1CC[C@@H](NC(=O)c2sc3nccc4c3c2NC(=O)N4c2ccc(Oc3ccccc3)cc2C)C1 [Example 184, N-((1R,3R)-3-Acrylamidocyclopentyl)-5-(2-methyl-4-phenoxyphenyl)-4-oxo-4,5-dihydro-3H-1-thia-3,5,8-triazaacenaphthylene-2-carboxamide]",7.55
8,"C=CC(=O)N[C@@H]1CCC[C@H]1NC(=O)c1sc2nccc3c2c1NC(=O)N3c1ccc(Oc2ccccc2)cn1 [Example 185, N-((1R,2R)-2-Acrylamidocyclopentyl)-4-oxo-5-(5-phenoxypyridin-2-yl)-4,5-dihydro-3H-1-thia-3,5,8-triazaacenaphthylene-2-carboxamide]",7.56
9,"C=CC(=O)N[C@H]1CCCC[C@H]1NC(=O)c1sc2nccc3c2c1NC(=O)N3c1ccc(OC2CCC2)nc1C [Example 187, N-((1R,2S)-2-Acrylamidocyclohexyl)-5-(6-cyclobutoxy-2-methylpyridin-3-yl)-4-oxo-4,5-dihydro-3H-1-thia-3,5,8-triazaacenaphthylene-2-carboxamide]",7.30
10,"C=CC(=O)N[C@@H]1CC[C@H](NC(=O)c2sc3nccc4c3c2NC(=O)N4c2ccc(Oc3ccccc3)c(Cl)c2)C1 [Example 191, N-((1S,3R)-3-Acrylamidocyclopentyl)-5-(3-chloro-4-phenoxyphenyl)-4-oxo-4,5-dihydro-3H-1-thia-3,5,8-triazaacenaphthylene-2-carboxamide]",7.95
11,"C=CC(=O)N[C@@H]1CC[C@H](NC(=O)c2sc3nccc4c3c2NC(=O)N4c2ccnc(-c3ccccc3)c2)C1 [Example 198, N-((1S,3R)-3-Acrylamidocyclopentyl)-4-oxo-5-(2-phenylpyridin-4-yl)-4,5-dihydro-3H-1-thia-3,5,8-triazaacenaphthylene-2-carboxamide]",7.98
12,"C=CC(=O)N[C@H]1CCC[C@H]1NC(=O)c1sc2nccc3c2c1NC(=O)N3c1ccc(Oc2cccnc2)cc1C [Example 199, N-((1R,2S)-2-Acrylamidocyclopentyl)-5-(2-methyl-4-(pyridin-3-yloxy)phenyl)-4-oxo-4,5-dihydro-3H-1-thia-3,5,8-triazaacenaphthylene-2-carboxamide]",8.13

# Continued, values first:
row,BTK_I_binding pIC50,Compound
1,8.34,"C=CC(=O)N[C@H]1CCC[C@H]1NC(=O)c1sc2nccc3c2c1NC(=O)N3c1cc(-c2ccccc2)ncn1 [Example 167, N-((1R,2S)-2-Acrylamidocyclopentyl)-4-oxo-5-(6-phenylpyrimidin-4-yl)-4,5-dihydro-3H-1-thia-3,5,8-triazaacenaphthylene-2-carboxamide]"
2,8.10,"C=CC(=O)N[C@H]1CCCC[C@H]1NC(=O)c1sc2nccc3c2c1NC(=O)N3c1ccnc(-c2ccccc2)c1 [Example 168, N-((1R,2S)-2-Acrylamidocyclohexyl)-4-oxo-5-(2-phenylpyridin-4-yl)-4,5-dihydro-3H-1-thia-3,5,8-triazaacenaphthylene-2-carboxamide]"
3,8.26,"C=CC(=O)N[C@H]1CCC[C@H]1NC(=O)c1sc2nccc3c2c1NC(=O)N3c1ccnc(-c2ccccc2)c1 [Example 169, N-((1R,2S)-2-Acrylamidocyclopentyl)-4-oxo-5-(2-phenylpyridin-4-yl)-4,5-dihydro-3H-1-thia-3,5,8-triazaacenaphthylene-2-carboxamide]"
4,8.23,"C=CC(=O)N[C@H]1CCC[C@H]1NC(=O)c1sc2nccc3c2c1NC(=O)N3c1cc(-c2ccccc2)ccn1 [Example 189, N-((1R,2S)-2-Acrylamidocyclopentyl)-4-oxo-5-(4-phenylpyridin-2-yl)-4,5-dihydro-3H-1-thia-3,5,8-triazaacenaphthylene-2-carboxamide]"
5,7.92,"C=CC(=O)N[C@H]1CCC[C@H]1NC(=O)c1sc2nccc3c2c1NC(=O)N3c1cncc(-c2ccccc2)c1 [Example 192, N-((1R,2S)-2-Acrylamidocyclopentyl)-4-oxo-5-(5-phenylpyridin-3-yl)-4,5-dihydro-3H-1-thia-3,5,8-triazaacenaphthylene-2-carboxamide]"
6,8.09,"C=CC(=O)N[C@H]1CCC[C@H]1NC(=O)c1sc2nccc3c2c1NC(=O)N3c1cccc(-c2ccccc2)c1 [Example 193, 5-([1,1′-Biphenyl]-3-yl)-N-((1R,2S)-2-acrylamidocyclopentyl)-4-oxo-4,5-dihydro-3H-1-thia-3,5,8-triazaacenaphthylene-2-carboxamide]"
7,7.89,"C=CC(=O)N[C@H]1CCC[C@H]1NC(=O)c1sc2nccc3c2c1NC(=O)N3c1cccc(-c2ccccn2)c1 [Example 194, N-((1R,2S)-2-Acrylamidocyclopentyl)-4-oxo-5-(3-(pyridin-2-yl)phenyl)-4,5-dihydro-3H-1-thia-3,5,8-triazaacenaphthylene-2-carboxamide]"
8,8.32,"C=CC(=O)N[C@H]1CCC[C@H]1NC(=O)c1sc2nccc3c2c1NC(=O)N3c1cnc(Oc2ccccc2)cn1 [Example 201, N-((1R,2S)-2-Acrylamidocyclopentyl)-4-oxo-5-(5-phenoxypyrazin-2-yl)-4,5-dihydro-3H-1-thia-3,5,8-triazaacenaphthylene-2-carboxamide]"
